{
  "source": "patent US20230339886A1",
  "about": "(University of Florida Research Foundation, Incorporated, priority 2020, published 2023)",
  "target": "T1, REV-ERBα LBD (human; residues 281-614 Δ324-422) (Homo sapiens, UniProt P20393, DEL324-422)",
  "T1 construct": "6×Histag-REV-ERBα LBD (human; residues 281-614 Δ324-422); made in house; host or cells: Escherichia coli",
  "T1 sequence (P20393 with tags, fused parts or gaps DEL324-422)": "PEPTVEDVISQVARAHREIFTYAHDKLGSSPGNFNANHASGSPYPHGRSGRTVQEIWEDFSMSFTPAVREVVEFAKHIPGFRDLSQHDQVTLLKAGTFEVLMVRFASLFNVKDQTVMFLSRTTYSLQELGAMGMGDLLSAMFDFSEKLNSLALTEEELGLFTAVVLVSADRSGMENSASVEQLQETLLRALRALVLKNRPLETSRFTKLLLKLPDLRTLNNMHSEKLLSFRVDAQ",
  "T1 sequence (Q9Y618 2335-2356 partner limits assumed)": "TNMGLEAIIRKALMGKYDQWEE",
  "test": "TR-FRET corepressor interaction assay (REV-ERBα LBD, FITC-SMRT peptide)",
  "format": "biochemical",
  "conditions": "FITC-SMRT peptide, read-out: REVERBα agonism (EC50 class, FRET assay)",
  "summary_of_the_method": "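Compound serial dilutions (in DMSO, triplicate) incubated 2 h at 4 °C; Tb donor excited at 340 nm, emission read at 495 nm and FITC acceptor at 520 nm. TR-FRET ratio (520/495 nm) plotted against ligand concentration and fitted to a sigmoidal dose-response curve.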",
  "data": [
    {"smiles": "CC(C)(C)Cc1cn(CCNS(=O)(=O)C2CCCC2)c2ccc(-c3ccc(C(F)(F)F)cc3C(F)(F)F)cc12", "note": "[Example 503, N-(2-(5-(2,4-bis(trifluoromethyl)phenyl)-3-neopentyl-1H-indol-1-yl)ethyl)cyclopentanesulfonamide]", "values": [
      {"measurement": "EC50", "value": "< 500", "unit": "nM"}
    ]},
    {"smiles": "CC(C)C(=O)n1cc([C@H](NS(=O)(=O)C2CCC2)C(F)(F)F)c2ccc(-c3ccccc3C(F)(F)F)cc21", "note": "[Example 504, (S)—N-(2,2,2-trifluoro-1-(1-isobutyryl-6-(2-(trifluoromethyl)phenyl)-1H-indol-3-yl)ethyl)cyclobutanesulfonamide]", "values": [
      {"measurement": "EC50", "value": "< 500", "unit": "nM"}
    ]},
    {"smiles": "CC(C)C(=O)n1cc([C@H](NS(=O)(=O)C2CCC2)C(F)(F)F)c2cc(F)c(-c3ccccc3C(F)(F)F)cc21", "note": "[Example 505, (S)—N-(2,2,2-trifluoro-1-(5-fluoro-1-isobutyryl-6-(2-(trifluoromethyl)phenyl)-1H-indol-3-yl)ethyl)cyclobutanesulfonamide]", "values": [
      {"measurement": "EC50", "value": "< 500", "unit": "nM"}
    ]},
    {"smiles": "CC(C)(C)Cn1cc([C@H](NS(=O)(=O)C2CCC2)C(F)(F)F)c2ccc(C3CCCC3)cc21", "note": "[Example 506, (S)—N-(1-(6-cyclopentyl-1-neopentyl-1H-indol-3-yl)-2,2,2-trifluoroethyl)cyclobutanesulfonamide]", "values": [
      {"measurement": "EC50", "value": "< 500", "unit": "nM"}
    ]},
    {"smiles": "CC(NS(=O)(=O)C1CCC1)c1cn(CC(C)(C)C)c2cc(-c3ccccc3C(F)(F)F)ccc12", "note": "(stereo not shown) [Example 507, N-(1-(1-neopentyl-6-(2-(trifluoromethyl)phenyl)-1H-indol-3-yl)ethyl)cyclobutanesulfonamide]", "values": [
      {"measurement": "EC50", "value": "< 500", "unit": "nM"}
    ]},
    {"smiles": "CC(NS(=O)(=O)C1CCC1)c1cn(CC(C)(C)C)c2cc(-c3ccccc3C(F)(F)F)c(F)cc12", "note": "(stereo not shown) [Example 508, N-(1-(5-fluoro-1-neopentyl-6-(2-(trifluoromethyl)phenyl)-1H-indol-3-yl)ethyl)cyclobutanesulfonamide]", "values": [
      {"measurement": "EC50", "value": "< 500", "unit": "nM"}
    ]},
    {"smiles": "[2H]C([2H])([2H])C(NS(=O)(=O)C1CCC1)c1cn(CC(C)(C)C)c2cc(-c3ccccc3C(F)(F)F)ccc12", "note": "(stereo not shown) [Example 509, N-(1-(1-neopentyl-6-(2-(trifluoromethyl)phenyl)-1H-indol-3-yl)ethyl-2,2,2-d3)cyclobutanesulfonamide]", "values": [
      {"measurement": "EC50", "value": "< 500", "unit": "nM"}
    ]},
    {"smiles": "CC(NS(=O)(=O)C1CCC1)c1cn(CC2CCCC2)c2cc(-c3ccccc3C(F)(F)F)ccc12", "note": "(stereo not shown) [Example 510, N-(1-(1-(cyclopentylmethyl)-6-(2-(trifluoromethyl)phenyl)-1H-indol-3-yl)ethyl)cyclobutanesulfonamide]", "values": [
      {"measurement": "EC50", "value": "< 500", "unit": "nM"}
    ]},
    {"smiles": "CC(C)(C)Cn1cc([C@H](NS(=O)(=O)C2CCC2)C(F)(F)F)c2cc(F)c(-c3c(F)cccc3C(F)(F)F)cc21", "note": "[Example 511, N-((1S)-2,2,2-trifluoro-1-(5-fluoro-6-(2-fluoro-6-(trifluoromethyl)phenyl)-1-neopentyl-1H-indol-3-yl)ethyl)cyclobutanesulfonamide]", "values": [
      {"measurement": "EC50", "value": "500 to 3000", "unit": "nM"}
    ]},
    {"smiles": "CC1(Cn2cc([C@H](NS(=O)(=O)C3CCC3)C(F)(F)F)c3ccc(-c4ccccc4C(F)(F)F)cc32)CC1", "note": "[Example 512, (S)—N-(2,2,2-trifluoro-1-(1-((1-methylcyclopropyl)methyl)-6-(2-(trifluoromethyl)phenyl)-1H-indol-3-yl)ethyl)cyclobutanesulfonamide]", "values": [
      {"measurement": "EC50", "value": "< 500", "unit": "nM"}
    ]},
    {"smiles": "CC(C)(C)Cn1cc([C@H](NS(=O)(=O)C2CCC2)C(F)F)c2ccc(-c3ccccc3C(F)(F)F)cc21", "note": "[Example 513, (S)—N-(2,2-difluoro-1-(1-neopentyl-6-(2-(trifluoromethyl)phenyl)-1H-indol-3-yl)ethyl)cyclobutanesulfonamide]", "values": [
      {"measurement": "EC50", "value": "< 500", "unit": "nM"}
    ]},
    {"smiles": "C[C@H]1C[C@@H]1S(=O)(=O)N[C@@H](c1cn(CC(C)(C)C)c2cc(-c3ccccc3C(F)(F)F)ccc12)C(F)(F)F", "note": "[Example 514, (1S,2S)-2-methyl-N—((S)-2,2,2-trifluoro-1-(1-neopentyl-6-(2-(trifluoromethyl)phenyl)-1H-indol-3-yl)ethyl)cyclopropane-1-sulfonamide]", "values": [
      {"measurement": "EC50", "value": "< 500", "unit": "nM"}
    ]},
    {"smiles": "CC(C)(C)Cn1cc([C@H](NS(=O)(=O)C2CC2(F)F)C(F)(F)F)c2ccc(-c3ccccc3C(F)(F)F)cc21", "note": "(stereo partly drawn) [Example 515, 2,2-difluoro-N—((S)-2,2,2-trifluoro-1-(1-neopentyl-6-(2-(trifluoromethyl)phenyl)-1H-indol-3-yl)ethyl)cyclopropane-1-sulfonamide]", "values": [
      {"measurement": "EC50", "value": "500 to 3000", "unit": "nM"}
    ]},
    {"smiles": "CC(C)(C)Cn1cc([C@@H](CF)NS(=O)(=O)C2CCC2)c2ccc(-c3ccccc3C(F)(F)F)cc21", "note": "[Example 516, (S)—N-(2-fluoro-1-(1-neopentyl-6-(2-(trifluoromethyl)phenyl)-1H-indol-3-yl)ethyl)cyclobutanesulfonamide]", "values": [
      {"measurement": "EC50", "value": "< 500", "unit": "nM"}
    ]},
    {"smiles": "[2H]C([2H])(n1cc([C@H](NS(=O)(=O)C2CCC2)C(F)(F)F)c2ccc(-c3ccccc3C(F)(F)F)cc21)C(C)(C)C", "note": "[Example 517, (S)—N-(1-(1-(2,2-dimethylpropyl-1,1-d2)-6-(2-(trifluoromethyl)phenyl)-1H-indol-3-yl)-2,2,2-trifluoroethyl)cyclobutanesulfonamide]", "values": [
      {"measurement": "EC50", "value": "< 500", "unit": "nM"}
    ]},
    {"smiles": "CC(C)(C)Cn1cc([C@H](NS(=O)(=O)C2CCC2)C(F)F)c2ccc(-c3ccccc3C(F)(F)F)nc21", "note": "[Example 518, (S)—N-(2,2-difluoro-1-(1-neopentyl-6-(2-(trifluoromethyl)phenyl)-1H-pyrrolo[2,3-b]pyridin-3-yl)ethyl)cyclobutanesulfonamide]", "values": [
      {"measurement": "EC50", "value": "< 500", "unit": "nM"}
    ]},
    {"smiles": "CC(C)(C)Cn1cc([C@H](NS(=O)(=O)C2CCC2)C(F)(F)F)c2ccc(C3CCOCC3)cc21", "note": "[Example 519, (S)—N-(2,2,2-trifluoro-1-(1-neopentyl-6-(tetrahydro-2H-pyran-4-yl)-1H-indol-3-yl)ethyl)cyclobutanesulfonamide]", "values": [
      {"measurement": "EC50", "value": "< 500", "unit": "nM"}
    ]},
    {"smiles": "N#Cc1cccc(F)c1-c1ccc2c([C@H](NS(=O)(=O)C3CCC3)C(F)(F)F)cn(C3CCC3)c2c1", "note": "[Example 520, (S)—N-(1-(6-(2-cyano-6-fluorophenyl)-1-cyclobutyl-1H-indol-3-yl)-2,2,2-trifluoroethyl)cyclobutanesulfonamide]", "values": [
      {"measurement": "EC50", "value": "< 500", "unit": "nM"}
    ]},
    {"smiles": "CC(C)(C)Cn1cc([C@H](NS(=O)(=O)C2CCC2)C(F)(F)F)c2ccc(C3=CCCC3)cc21", "note": "[Example 521, (S)—N-(1-(6-cyclopentenyl-1-neopentyl-1H-indol-3-yl)-2,2,2-trifluoroethyl)cyclobutanesulfonamide]", "values": [
      {"measurement": "EC50", "value": "< 500", "unit": "nM"}
    ]},
    {"smiles": "CC(C)(C)Cn1cc([C@H](NS(=O)(=O)C2CC(O)C2)C(F)(F)F)c2ccc(-c3ccccc3C(F)(F)F)cc21", "note": "(stereo partly drawn) [Example 522, (S)-3-hydroxy-N-(2,2,2-trifluoro-1-(1-neopentyl-6-(2-(trifluoromethyl)phenyl)-1H-indol-3-yl)ethyl)cyclobutane-1-sulfonamide]", "values": [
      {"measurement": "EC50", "value": "500 to 3000", "unit": "nM"}
    ]},
    {"smiles": "O=S(=O)(N[C@@H](c1cn(CC2(C(F)(F)F)CC2)c2cc(-c3ccccc3C(F)(F)F)ccc12)C(F)(F)F)C1CCC1", "note": "[Example 523, (S)—N-(2,2,2-trifluoro-1-(1-((1-(trifluoromethyl)cyclopropyl)methyl)-6-(2-(trifluoromethyl)phenyl)-1H-indol-3-yl)ethyl)cyclobutanesulfonamide]", "values": [
      {"measurement": "EC50", "value": "< 500", "unit": "nM"}
    ]},
    {"smiles": "CC(C)(C)Cn1cc([C@H](NS(=O)(=O)C2CC2)C(F)(F)F)c2cc(F)c(-c3ccccc3C(F)(F)F)nc21", "note": "[Example 524, (S)—N-(2,2,2-trifluoro-1-(5-fluoro-1-neopentyl-6-(2-(trifluoromethyl)phenyl)-1H-pyrrolo[2,3-b]pyridin-3-yl)ethyl)cyclopropanesulfonamide]", "values": [
      {"measurement": "EC50", "value": "< 500", "unit": "nM"}
    ]}
  ]
}
